Broadly, the EC50 is the concentration needed to bring the measured effect to its halfway point. For orientation: AUC(0-inf) means total exposure, with the tail of the curve extrapolated. By Cmax is commonly meant the peak of the concentration-time curve. The MRT last is the average time that molecules of a dose stay in the body. A word on the half-life: it is the time needed for the level to fall by half in the phase considered. A word on the Tmax: it is the time at which the peak concentration occurs. By clearance is commonly meant the volume of plasma or blood freed of the substance per unit of time. As usually defined, the MRT is a mean duration of stay, worked out from the concentration-time curve. Broadly, the Vss is the apparent volume that relates the amount in the body to the concentration in plasma or blood.

The nature of data set [1]: Pharmacokinetic study of BNP conjugates, single IV dose in rats. It counts as in vivo, Sprague-Dawley rats. The following applies: for Cmax: test article in plasma (non-releasable PEG-BNP or native BNP). An excerpt: All animals were food fasted overnight.
Following the last collection point, the animals were euthanized. […]

In data set [2] the target is T1, GPR54 G-Protein coupled receptor (Homo sapiens, UniProt Q969F8).
T1 construct: host or cells: Chem-1 host cells
T1 sequence (Q969F8 whole entry): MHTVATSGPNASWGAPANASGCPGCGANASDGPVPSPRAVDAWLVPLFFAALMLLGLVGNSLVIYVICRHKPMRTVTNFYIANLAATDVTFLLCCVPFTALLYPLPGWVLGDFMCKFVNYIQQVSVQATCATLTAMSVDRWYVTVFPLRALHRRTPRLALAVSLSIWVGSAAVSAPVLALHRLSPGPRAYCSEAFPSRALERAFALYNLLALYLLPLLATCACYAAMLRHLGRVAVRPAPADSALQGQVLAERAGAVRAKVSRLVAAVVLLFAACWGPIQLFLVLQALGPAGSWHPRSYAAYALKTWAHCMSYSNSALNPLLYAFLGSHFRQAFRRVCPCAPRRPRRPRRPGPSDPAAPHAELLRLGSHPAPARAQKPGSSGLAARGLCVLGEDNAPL
The experiment in a line: FLIPR calcium flux agonist assay on GPR54. It counts as cell-based. The note with it: no release incubation. On the technique in general: A change in cytosolic calcium serves as a functional read-out for many receptors and channels.

Data set [3] in a line: Pharmacokinetic study of protegrin conjugates, single IV dose in rats. It counts as in vivo, Sprague-Dawley rats. The protocol: The weight range of the animals was 313-346 grams. All animals were food fasted overnight.
Following the last collection point, the animals were euthanized. Bioanalytical analysis: analysis of the plasma samples was conducted using non-validated LC-MS/MS methods.

Data set [4] is described as follows: Pharmacokinetic study of V681 (V13AD) conjugates, single IV dose in rats. It counts as in vivo, Sprague-Dawley rats. The note with it: 1.0 mg/kg equivalent protein mass IV. An excerpt: The weight range of the animals was 311-346 grams. All animals were food fasted overnight. […] The predose sample was collected from the JVC.
Following the last collection point, the animals were euthanized.

In a further data set the test system is db/db diabetic mice. The experiment in a line: Blood glucose levels in db/db diabetic mice after i.p. injection. It counts as in vivo. The protocol: At different time points after dosing blood glucose levels were measured.
PBS saline solution and Dextran equivalent dose were administrated as negative controls.

Where [5] appears, read: rat, in vivo, protegrin-1 in plasma (released or native), 1.6 mg/kg equivalent protein mass IV.
Where [6] appears, read: test compound in plasma (non-releasable conjugates, native PG-1), […] equivalent protein mass IV, Mean ± SD.
Where [7] appears, read: protegrin-1 in plasma (released or native), […] equivalent protein mass IV.
Setting [8] is: 0.459 mg/kg equivalent protein mass IV, rats.
The mark [9] stands for this setting: test article in plasma (non-releasable PEG-BNP), 0.459 mg/kg equivalent protein mass IV, rats.
[10] abbreviates: BNP in plasma (released from conjugate or given as native), 0.459 mg/kg equivalent protein mass IV, rats.
The mark [11] stands for this setting: intact C2-FMOC-PEG2-40K-BNP, IV bolus, rats.

Several values for one entry are separate records, joined by “and”; a condition that tells them apart may be missing. Equal entries are not always repeated. Marks after values point to notes of the source that are not given here. Square brackets hold non-standard residues; d marks the D form. Ends that are not written are not given here. Peptide text beside a SMILES is read from it.

Turning to `CC[C@H](C)[C@@H]1NC(=O)[C@H](CCCNC(=N)N)NC(=O)[C@H](CC(=O)O)NC(=O)[C@H](CCSC)NC(=O)[C@H](CCCCN)NC(=O)[C@H](CCCNC(=N)N)NC(=O)CNC(=O)[C@H](Cc2ccccc2)NC(=O)[C@@H](NC(=O)CNC(=O)[C@H](CO)NC(=O)CNC(=O)[C@H](CCC(N)=O)NC(=O)[C@@H](NC(=O)[C@H](CCSC)NC(=O)[C@H](CCCCN)NC(=O)[C@@H]2CCCN2C(=O)[C@@H](N)CO)C(C)C)CSSC[C@@H](C(=O)N[C@@H](CCCCN)C(=O)N[C@H](C(=O)N[C@@H](CC(C)C)C(=O)N[C@@H](CCCN=C(N)N)C(=O)N[C@@H](CCCN=C(N)N)C(=O)N[C@@H](Cc2cnc[nH]2)C(=O)O)C(C)C)NC(=O)CNC(=O)[C@H](CC(C)C)NC(=O)CNC(=O)[C@H](CO)NC(=O)[C@H](CO)NC(=O)[C@H](CO)NC(=O)[C@H](CO)NC1=O` [BNP, Brain Natriuretic Peptide (BNP-32), reference compound], in data set [1] (male, Sprague-Dawley, rat, plasma, 0.03 hr after IV BNP administration, all animals, read-out: plasma concentration at first time point), the level at 0.03 h is less than 20 ng/mL.
For the molecule `CC(C)C[C@H](NC(=O)CNC(=O)[C@H](Cc1ccccc1)NC(=O)[C@H](CO)NC(=O)[C@H](CC(N)=O)NC(=O)[C@H](Cc1c[nH]c2ccccc12)NC(=O)[C@H](CC(N)=O)NC(=O)[C@@H](N)Cc1ccc(O)cc1)C(=O)N[C@@H](CCCNC(=N)N)C(=O)N[C@@H](Cc1ccccc1)C(N)=O` [KP10, Kisspeptin-10], the concentration giving a half-maximal response (EC50) in data set [2] (agonist activation at GPR54) is 10 to 14 nM and 10 nM. Further, the “Fold change compared to metastin” value in data set [2] came to 1.
With `CC(C)C[C@H](NC(=O)[C@H](CCCNC(=N)N)NC(=O)CNC(=O)CNC(=O)[C@@H](N)CCCNC(=N)N)C(=O)N[C@H]1CSSC[C@@H](C(=O)N[C@H](C(=O)NCC(=O)N[C@@H](CCCNC(=N)N)C(N)=O)C(C)C)NC(=O)[C@H](C(C)C)NC(=O)[C@@H]2CSSC[C@H](NC(=O)[C@H](Cc3ccc(O)cc3)NC1=O)C(=O)N[C@@H](CCCNC(=N)N)C(=O)N[C@@H](CCCNC(=N)N)C(=O)N[C@@H](CCCNC(=N)N)C(=O)N[C@@H](Cc1ccccc1)C(=O)N2` [Protegrin-1, reference compound], in data set [3] (setting [5]), the AUC(0-inf) was determined as 1160 ± 351 ng·h/mL, the Cmax came out at 2050 ± 601 ng/mL, the mean residence time MRT last came to 31.2 ± 3 min and the half-life is 21 min. For the same molecule, in data set [3] (rat, in vivo, protegrin-1 in plasma (released or native), 1.6 mg/kg equivalent protein mass IV, read-out: Tmax), the time of peak concentration (Tmax) came to 1.8 min. In addition, the clearance in data set [3] (rat, in vivo, test compound in plasma (non-releasable conjugates, native PG-1), 1.6 mg/kg equivalent protein mass IV, Mean ± SD) was 24.5 mL/min/kg. For the same molecule, the Vd in data set [3] (rat, in vivo, test compound in plasma (non-releasable conjugates, native PG-1), 1.6 mg/kg equivalent protein mass IV, Mean ± SD, read-out: Vss) stood at 0.848 ± 0.36 L/kg.
For `CC[C@H](C)[C@H](NC(=O)[C@H](C)NC(=O)[C@H](CCCCN)NC(=O)[C@H](CC(C)C)NC(=O)[C@H](C)NC(=O)[C@@H](NC(=O)[C@H](Cc1c[nH]cn1)NC(=O)[C@H](CC(C)C)NC(=O)[C@@H](NC(=O)[C@@H](NC(=O)[C@H](CCCCN)NC(=O)[C@@H](C)NC(=O)[C@H](C)NC(=O)[C@H](CO)NC(=O)[C@H](CCCCN)NC(=O)[C@H](Cc1ccccc1)NC(=O)[C@@H](NC(=O)[C@H](CCCCN)NC(=O)[C@H](CC(C)C)NC(=O)[C@H](Cc1ccccc1)NC(=O)[C@H](CO)NC(=O)[C@H](CCCCN)NC(=O)[C@H](Cc1c[nH]c2ccccc12)NC(=O)[C@H](CCCCN)NC(C)=O)[C@@H](C)O)[C@@H](C)O)C(C)C)[C@@H](C)O)C(=O)N[C@@H](CO)C(=O)N[C@@H](CO)C(N)=O` [V681 (V13AD), V681(V13AD), reference compound] (Ac-KWKSFLKTFKSA[dA]KTVLHTALKAISS-NH2), in data set [4], the “AUCINF” value is 7.21 ± 1.43 µg·h/mL, the “CL” value amounted to 142 ± 26 mL/h/kg, the “Cmax” value is 16500 ± 9670 ng/mL and the “MRT” value came out at 19.8 ± 4.8 min. In addition, in data set [4], the “T1/2” value amounted to 36.6 ± 23.4 min and the “Vss” value was 47.7 ± 18.0 mL/kg.
Consider “(PG-1)-(ALD)22K-(PG-1) (RGGRLCYCRRRFCVCVGR-NH2; cysteine pairing not given here; also: two peptide copies linked by PEG-dibutyraldehyde 2K; UniProt P32194 131-148, looked up) [PG-1-PEG-2K-PG-1, non-releasable di-peptide conjugate with bi-functional PEG-butyraldehyde-2K]”, for which, in data set [3] (setting [6]), the “CL” value was determined as 209 ± 27.3 mL/h/kg, the “T1/2” value was 7.3 ± 1.1 h and the “Vss” value was 432 ± 40.5 mL/kg.
The matching figures for “ALD40K-PG-1 (RGGRLCYCRRRFCVCVGR-NH2; cysteine pairing not given here; also: mPEG2-butyraldehyde 40K conjugate; UniProt P32194 131-148, looked up) [mPEG2-40K-PG-1, non-releasable conjugate of protegrin-1 with mPEG2-butaraldehyde-40K]”: 32.9 ± 12.4 mL/h/kg, 10.8 ± 3.0 h and 320 ± 131 mL/kg.
For the molecule Insulin, the “Blood glucose level, Mean” value stood at 510 mg/dL in the data set on db/db diabetic mice (Ins 5 ug/mouse, time 0 hr, N = 5); 265 mg/dL with db/db diabetic mice (Ins 5 ug/mouse, time 1 hr, N = 5); 352 mg/dL with db/db diabetic mice (Ins 5 ug/mouse, time 2 hr, N = 5); 587 mg/dL with db/db diabetic mice (Ins 5 ug/mouse, time 4 hr, N = 5); 538 mg/dL in the data set on db/db diabetic mice (Ins 5 ug/mouse, time 8 hr, N = 5); 538 mg/dL in the data set on db/db diabetic mice (Ins 5 ug/mouse, time 24 hr, N = 5). For the same molecule, the “Blood glucose level, Mean” value with db/db diabetic mice (Ins 50 ug/mouse, time 0 hr, N = 5) is recorded as 445 mg/dL; in the data set on db/db diabetic mice (Ins 50 ug/mouse, time 1 hr, N = 5), 210 mg/dL; with db/db diabetic mice (Ins 50 ug/mouse, time 2 hr, N = 5) it was 150 mg/dL; in the data set on db/db diabetic mice (Ins 50 ug/mouse, time 4 hr, N = 5), 550 mg/dL; with db/db diabetic mice (Ins 50 ug/mouse, time 8 hr, N = 5), 558 mg/dL; with db/db diabetic mice (Ins 50 ug/mouse, time 24 hr, N = 5) it was 541 mg/dL.
In the case of “[mono]-[4,7-CG-PEG2-FMOC-NHS-40K]-[protegrin-1] (RGGRLCYCRRRFCVCVGR-NH2; cysteine pairing not given here; also: releasable CG-PEG2-FMOC 40K PEG, site not given here; UniProt P32194 131-148, looked up) [CG-PEG2-FMOC-40K-PG-1, releasable PEG conjugate of protegrin-1]”, in data set [3] (setting [7]), the “T1/2 (hr)” value is recorded as 1.95* hr and the “Tmax” value turned out to be 1.8 min.
As to “[mono]-[mPEG2-Butyr-ALD-40K]-[BNP-32] [ButyrALD-40K-BNP]”, the “Cmax” value in data set [1] (setting [8]) is recorded as 1410 ng/mL. In addition, in data set [1] (setting [9]), the “AUCINF” value was 41300 ng·h/mL, the “CL” value amounted to 11.1 mL/h/kg, the “MRTlast” value worked out at 24.0 h and the “T½” value was 26.1 h. Moreover, the distribution volume (Vss) in data set [1] (setting [9]) worked out at 631 mL/kg.
Consider “[mono]-[mPEG2-C2-fmoc-NHS-40K]-[BNP-32] [C2-FMOC-PEG2-40K-BNP]”, for which, in data set [1] (setting [10]), the “AUCINF” value is 162 ng·h/mL and the “MRTlast” value came out at 1.84 h. For the same molecule, the “Tmax” value in data set [1] (BNP in plasma (released from conjugate or given as native), 0.459 mg/kg equivalent protein mass IV, rats, 0.459 mg/kg) is 18 min and 19.8 min. Moreover, the “time released BNP stayed above 20 ng/mL” value in data set [1] (following C2-FMOC-PEG2-40K-BNP IV dosing) worked out at 8 h. Further, in data set [1] (setting [11]), the “Peak concentration of the conjugate in plasma” value is given as 1300 ng/mL, the “half-life of the conjugate in plasma” value was determined as 15.0 h and the “time plasma conjugate concentrations remained above 100 ng/mL” value was 24 h.
For “[mono]-[mPEG-Butyr-ALD-10K]-[BNP-32] [ButyrALD-10K-BNP]”, the “Cmax” value in data set [1] (setting [8]) amounted to 355 ng/mL. Further, in data set [1] (setting [9]), the “AUCINF” value worked out at 96.6 ng·h/mL, the “CL” value was found to be 4750 mL/h/kg, the “MRTlast” value was found to be 0.368 h and the “T½” value was found to be 0.272 h. The “Vss” value in data set [1] (setting [9]) came to 2270 mL/kg.
dextran-butyrALD-40K-insulin [Dex-Ins]: the “Blood glucose level, Mean” value in the data set on db/db diabetic mice (Dex-Ins 250 ug/mouse i.p., time 0 hr, N = 4) stood at 495 mg/dL; in the data set on db/db diabetic mice (Dex-Ins 250 ug/mouse i.p., time 1 hr, N = 4) it was 263 mg/dL; in the data set with db/db diabetic mice (Dex-Ins 250 ug/mouse i.p., time 2 hr, N = 4), 192 mg/dL; in the data set on db/db diabetic mice (Dex-Ins 250 ug/mouse i.p., time 4 hr, N = 4), 462 mg/dL; in the data set on db/db diabetic mice (Dex-Ins 250 ug/mouse i.p., time 8 hr, N = 4), 494 mg/dL; in the data set on db/db diabetic mice (Dex-Ins 250 ug/mouse i.p., time 24 hr, N = 4), 517 mg/dL. For the same molecule, the “decrease of db/db mice glucose levels” value in the data set on db/db diabetic mice (at 1 hr and 2 hr after administration, 250 ug/mouse i.p.) is given as 40-60%.
